# In paper PMC12030627, “Radioiodinated Bicyclic RGD Peptide Derivatives for Enhanced Tumor Accumulation” (Pharmaceuticals, 2025):
# Read-outs that look alike come from different tables or passages of the source. Starred links: 1 amine or outer side, 2 acyl side, 3 side chain; linkers in the order of their positions; H or OH if unused. Positions of bridges follow the written chain, without caps; N, C: chain ends. Non-standard residues stand in square brackets, D forms with d. Residues, ends and D or L forms follow the SMILES beside them. *: point of attachment. TBMB = c1c(C[*:1])cc(C[*:3])cc1C[*:2]; Palmitoyl = CCCCCCCCCCCCCCCC(=O)*; Benzoyl(3-I) = O=C(c1cccc(I)c1)*; 4Abz = Nc1ccc(C(=O)O)cc1
# Tests used:
# [1] = Albumin binding, size-exclusion spin column elution after incubation with mouse plasma; assay type: in vitro ADME; conditions: 37 kBq in 50 μL PBS(–) incubated 37 °C 10 min with 200 μL mouse plasma (male ddY); Sephadex G-50 Fine spin column, 2000 rpm 2 min; γ-counter; eluted/added radioactivity × 100
# Method: To assess albumin binding, mouse plasma was obtained by centrifugation of whole blood from male ddY mice (9 weeks old). [^125I]bcRGD, [^125I]bcRGDpal, [^125I]bcRGDiba, or [^125I]bcRGDdimer (37 kBq) in 50 μL PBS(–) was incubated at 37 °C for 10 min with 200 μL of PBS(–), mouse plasma, or human serum albumin (HSA, 45 mg/mL in PBS(–); Wako Pure Chemical Industries, Osaka, Japan). The mixtures were applied to gel filtration spin columns (Sephadex G-50 Fine; Cytiva, Tokyo, Japan), centrifuged (2000 rpm, 2 min), and radioactivity in the eluted fraction was measured with a γ-counter. The high molecular weight fraction was calculated as the elution ratio = (radioactivity in elution)/(added radioactivity) × 100 (%).
# [2] = Biodistribution in U-87 MG tumor-bearing mice; assay type: in vivo, BALB/c nu-nu mice; conditions: mouse, total radioactivity, 2 h post-administration, tumor-bearing mice, comparator value, no method or n printed for this probe
# Method: Animal experiments were performed in compliance with institutional animal care regulations, with the study protocol approved by the Experimental Animal Committee of Osaka Medical and Pharmaceutical University (Approval Numbers: 21–76, 22–76, and 23–76). Four-week-old male BALB/c nu-nu mice (Japan SLC, Shizuoka, Japan) were housed under a 12 h light/12 h dark cycle with free access to food and water. Tumor-bearing mice were established by suspending U-87 MG cells (2 × 10^6 cells/mouse) in PBS(–) and subcutaneously injecting 100 μL of the suspension into the right hind leg. For co-implantation models, A549 cells (2 × 10^6 cells/mouse) were suspended in PBS(–) and inoculated (100 μL) into the left hind leg of the same mice already inoculated with U-87 MG cells. Mice with tumor size approximately 10 mm in diameter, 4–5 weeks after inoculation, were used for biodistribution studies. Animals in which either tumor was not viable were excluded from the experiment.
# U-87 MG-bearing mice (n = 42, 8–9 weeks old; 22–27 g) were randomly assigned into groups and administered [^125I]bcRGDpal or [^125I]bcRGDiba via intravenous injection (37 kBq in 100 μL of PBS containing 0.1% Tween 80 (PBS-T80)). At 5 min, 30 min, 1 h, 2 h, 6 h, 12 h, or 24 h post-injection, the mice were euthanized (n = 3 per time point). The heart, kidneys, liver, brain, pancreas, spleen, lung, small intestine, large intestine, muscle, skin, stomach, bone, and tumors were excised. Each organ’s weight and radioactivity were measured by a NaI well-type scintillation counter, and the % ID/g was calculated. To investigate the correlation between integrin expression and radioactivity accumulation, biodistribution at 2 h after administration of [^125I]bcRGDpal or [^125I]bcRGDiba was assessed in A549 and U-87 MG co-implantation mice (n = 5) using the same procedure. Additionally, co-implantation mice were injected with [^125I]bcRGDdimer (37 kBq/100 μL PBS-T80) and euthanized at 30 min, 2 h, and 4 h post-injection (n = 4 per time point), and % ID/g values were calculated as described above. The minimum sample size needed for the biodistribution study in U-87 MG-bearing mice was calculated using G Power software version 3.1.9.7. The calculation was based on a two-tailed test, with an effect size of 3.9, a significance level (α) of 0.05, and a statistical power (1 − β) of 0.8. […] The minimum required sample size for the biodistribution study in A549 and U-87 MG co-implantation mice was also calculated to be four animals per group (effect size = 2.5, α = 0.05, 1 − β = 0.8). To guarantee objective results, the experiment was carried out in a blinded manner. Specifically, drug administration and radioactivity measurements were conducted by different investigators to eliminate potential bias.
# [3] = Octanol–water distribution coefficient (log D); assay type: physicochemical; conditions: shake-flask 1-octanol/PBS(–) pH 7.4, 1.0 mL each (1:1), 40 kBq, vortexed 2 min, centrifuged 5000 rpm 5 min, radioactivity by γ-counter, mean of n = 4
# Method: For log D determination, [^125I]bcRGD, [^125I]bcRGDpal, [^125I]bcRGDiba, or [^125I]bcRGDdimer (40 kBq) was dissolved in 1.0 mL PBS(–) (pH 7.4) and mixed with 1.0 mL 1-octanol (1:1, v/v). The mixture was vortexed for 2 min and centrifuged at 5000 rpm for 5 min. Radioactivity in 0.5 mL of each phase was measured using a γ-counter, and log D values were calculated based on the radioactivity distribution (n = 4).
# integrin αVβ3 / αVβ5 = conditions: cited from earlier work
# From the text: A radiolabeled probe based on this bicyclic peptide, [^125I]bcRGD, was synthesized and shown to selectively accumulate in αVβ3-expressing cancer cells and xenograft models in mice. However, like many l ...
# human serum albumin = target: T1, human serum albumin (human, UniProt P02768 25-609); experiment: SEC; [^125I]-peptide (37 kBq in 50 μL PBS(-)) with 200 μL HSA (45 mg/mL in PBS(-)), 37 °C, 10 min; Sephadex G-50 Fine gel filtration spin column, 2000 rpm, 2 min; radioactivity in the eluted high molecular weight fraction as % of that added; conditions: both partners purified
# T1 construct: human serum albumin, 45 mg/mL in PBS(-); also called HSA; source: bought: Wako Pure Chemical Industries
Molecule,elution ratio (high molecular weight fraction) with HSA (human serum albumin) [%],αVβ3/αVβ5 selectivity ratio (ratio of corresponding IC50 values) (integrin αVβ3 / αVβ5),also measured
"CC(=O)N[C@@H](CCCCNC(=O)c1cccc(I)c1)C(=O)N1CCC[C@H]1C(=O)N1CCC[C@H]1C(=O)N1CCC[C@H]1C(=O)N[C@@H](CO)C(=O)NCC(=O)Nc1ccc(C(=O)N[C@@H](CO)C(=O)NCC(=O)N[C@H]2CSCc3cc4cc(c3)CSC[C@@H](NC(=O)[C@H](CCC(N)=O)NC(=O)[C@@H]3CCCN3C(=O)[C@H](Cc3c[nH]cn3)NC2=O)C(=O)N[C@@H](CCCNC(=N)N)C(=O)NCC(=O)N[C@@H](CC(=O)O)C(=O)N[C@@H](C(N)=O)CSC4)cc1 [[^125I]bcRGD, reference compound] (Ac-K(Benzoyl(3-I))PPPSG[4Abz]SGCHPQ[dC]RGD[dC]-NH2; linker 10-14-18 via TBMB)",,,"Elution rate from size-exclusion resin (high molecular weight fraction), mouse plasma [1]: 2%; tissue uptake at 2 h ([2]; U-87 MG tumor, read-out: Tumor-accumulated radioactivity (U-87 MG)): 0.7 %ID/g; tissue uptake at 2 h ([2]; blood, read-out: Blood radioactivity level): 0.3 %ID/g; logD [3]: -2.02"
cilengitide,,4.7,
cyclo-(RGDfK),,0.2,

# Continued, in another order:
elution ratio (high molecular weight fraction) with HSA (human serum albumin) [%],Molecule,αVβ3/αVβ5 selectivity ratio (ratio of corresponding IC50 values) (integrin αVβ3 / αVβ5),also measured
60,{4‑(p-iodophenyl)butyryl}-K((125I)3‑iodobenzoyl)PPPSG[4Abz]SGCHPQ[dC]RGD[dC]-NH2 (linker 10-14-18 via TBMB (inferred)) [[^125I]bcRGDiba],,
80,Palmitoyl-K((125I)3‑iodobenzoyl)PPPSG[4Abz]SGCHPQ[dC]RGD[dC]-NH2 (linker 10-14-18 via TBMB (inferred)) [[^125I]bcRGDpal],,
